ChEMBL document CHEMBL4007440, “Development of the First Generation of Disulfide-Based Subtype-Selective and Potent Covalent Pyruvate Dehydrogenase Kinase 1 (PDK1) Inhibitors” (J Med Chem, 2017)
pIC50, pKi: −log10 of the molar value. Blank lines part the entries; values can stand above or below the compound they belong to. Activity calls are given as the source filed them. The rule behind the calls is not given here.

What was measured:
[1] = target: T1, [Pyruvate dehydrogenase (acetyl-transferring)] kinase isozyme 1, mitochondrial (Homo sapiens, UniProt Q15118); experiment: Inhibition of full length His6-tagged PDK1 (unknown origin) expressed in Escherichia coli using full length His6-tagged PDHA1 as substrate after 30 mins by ELISA
T1 sequence (Q15118 whole entry): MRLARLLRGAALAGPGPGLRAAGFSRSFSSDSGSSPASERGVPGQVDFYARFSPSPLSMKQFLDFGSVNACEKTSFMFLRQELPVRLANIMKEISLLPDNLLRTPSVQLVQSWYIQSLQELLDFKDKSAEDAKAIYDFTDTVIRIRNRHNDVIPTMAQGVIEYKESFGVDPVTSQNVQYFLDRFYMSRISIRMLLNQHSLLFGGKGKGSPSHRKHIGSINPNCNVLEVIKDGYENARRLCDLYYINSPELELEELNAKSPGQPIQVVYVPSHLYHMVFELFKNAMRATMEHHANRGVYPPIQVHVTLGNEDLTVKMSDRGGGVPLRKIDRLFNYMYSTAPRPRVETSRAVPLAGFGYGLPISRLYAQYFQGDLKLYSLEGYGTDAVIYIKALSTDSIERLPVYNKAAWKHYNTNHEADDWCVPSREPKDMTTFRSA

[2] = target: T1, [Pyruvate dehydrogenase (acetyl-transferring)] kinase isozyme 1, mitochondrial; experiment: Inhibition of full length His6-tagged PDK1 (unknown origin) expressed in Escherichia coli up to 10 uM using full length His6-tagged PDHA1 as substrate after 30 mins by ELISA
[3] = target: [Pyruvate dehydrogenase (acetyl-transferring)] kinase isozyme 2, mitochondrial (Homo sapiens, UniProt Q15119); experiment: Inhibition of PDK2 (unknown origin) using full length His6-tagged PDHA1 as substrate after 30 mins by ELISA
[4] = target: T1, [Pyruvate dehydrogenase (acetyl-transferring)] kinase isozyme 1, mitochondrial; experiment: Inhibition of full length His6-tagged PDK1 (unknown origin) expressed in Escherichia coli using full length His6-tagged PDHA1 as substrate in presence of GSH after 30 mins by ELISA
[5] = target: T1, [Pyruvate dehydrogenase (acetyl-transferring)] kinase isozyme 1, mitochondrial; experiment: Inhibition of PDK1 in human A549 cells assessed as reduction in extracellular acidification rate after 24 hrs by fluorescent biosensor based assay; assay type: cell-based
[6] = target: T1, [Pyruvate dehydrogenase (acetyl-transferring)] kinase isozyme 1, mitochondrial; experiment: Inhibition of PDK1 in human A549 cells assessed as increase in reactive oxygen species after 24 hrs by dihydroethidium staining based FACS analysis; assay type: cell-based
[7] = target: T1, [Pyruvate dehydrogenase (acetyl-transferring)] kinase isozyme 1, mitochondrial; experiment: Inhibition of PDK1 in human A549 cells assessed as reduction in phosphorylation of PDHE1 at S293 residue at 10 uM after 24 hrs by chemiluminescence/femtochemiluminescence method; assay type: cell-based
A549 [8] = experiment: Antitumor activity against human A549 cells xenografted in BALB/c nude mouse assessed as tumor growth inhibition at 80 mg/kg, ip for 21 days measured on day 21 post dose relative to control; assay type: functional; settings: 504 h, read-out: TGI
[9] = target: [Pyruvate dehydrogenase (acetyl-transferring)] kinase isozyme 4, mitochondrial (Homo sapiens, UniProt Q16654); experiment: Inhibition of PDK4 (unknown origin) at 10 uM using full length His6-tagged PDHA1 as substrate after 30 mins by ELISA
Chain of [Pyruvate dehydrogenase (acetyl-transferring)] kinase isozyme 4, mitochondrial (Q16654 whole entry, looked up): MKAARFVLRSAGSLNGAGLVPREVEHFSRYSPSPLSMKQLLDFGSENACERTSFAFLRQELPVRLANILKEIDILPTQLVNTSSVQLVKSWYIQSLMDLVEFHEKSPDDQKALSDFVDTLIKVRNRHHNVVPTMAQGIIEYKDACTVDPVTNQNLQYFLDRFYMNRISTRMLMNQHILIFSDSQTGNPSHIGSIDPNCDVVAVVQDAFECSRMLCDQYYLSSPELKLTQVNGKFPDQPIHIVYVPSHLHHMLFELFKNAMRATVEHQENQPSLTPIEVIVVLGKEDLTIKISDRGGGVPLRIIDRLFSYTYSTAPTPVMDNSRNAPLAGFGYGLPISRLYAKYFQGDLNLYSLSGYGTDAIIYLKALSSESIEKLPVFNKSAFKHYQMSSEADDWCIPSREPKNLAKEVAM

[10] = Antiproliferative activity against human Kelly cells after 72 hrs by CCK8 assay
[11] = Antiproliferative activity against human GM00637 cells after 72 hrs by CCK8 assay; assay type: cell-based; settings: GM00637, 72 h
[12] = target: T1, [Pyruvate dehydrogenase (acetyl-transferring)] kinase isozyme 1, mitochondrial; experiment: Inhibition of PDK1 in human A549 cells assessed as reduction in phosphorylation of PDHE1 at S293 residue after 24 hrs by chemiluminescence/femtochemiluminescence method; assay type: cell-based
A549 [13] = experiment: Antitumor activity against human A549 cells xenografted in BALB/c nude mouse assessed as reduction in tumor weight at 40 to 80 mg/kg, ip for 21 days measured on day 21 post dose; assay type: functional, organism-based
[14] = target: T1, [Pyruvate dehydrogenase (acetyl-transferring)] kinase isozyme 1, mitochondrial; experiment: Inhibition of PDK1 in human A549 cells assessed as reduction in phosphorylation of PDHE1 at S232 residue at 10 uM after 24 hrs by chemiluminescence/femtochemiluminescence method; assay type: cell-based
A549 [15] = experiment: Antitumor activity against human A549 cells xenografted in BALB/c nude mouse assessed as tumor growth inhibition at 40 mg/kg, ip for 21 days measured on day 21 post dose relative to control; assay type: functional; settings: 504 h, read-out: TGI
[16] = target: [Pyruvate dehydrogenase (acetyl-transferring)] kinase isozyme 3, mitochondrial (Homo sapiens, UniProt Q15120); experiment: Inhibition of PDK3 (unknown origin) using full length His6-tagged PDHA1 as substrate after 30 mins by ELISA
Chain of [Pyruvate dehydrogenase (acetyl-transferring)] kinase isozyme 3, mitochondrial (Q15120 whole entry): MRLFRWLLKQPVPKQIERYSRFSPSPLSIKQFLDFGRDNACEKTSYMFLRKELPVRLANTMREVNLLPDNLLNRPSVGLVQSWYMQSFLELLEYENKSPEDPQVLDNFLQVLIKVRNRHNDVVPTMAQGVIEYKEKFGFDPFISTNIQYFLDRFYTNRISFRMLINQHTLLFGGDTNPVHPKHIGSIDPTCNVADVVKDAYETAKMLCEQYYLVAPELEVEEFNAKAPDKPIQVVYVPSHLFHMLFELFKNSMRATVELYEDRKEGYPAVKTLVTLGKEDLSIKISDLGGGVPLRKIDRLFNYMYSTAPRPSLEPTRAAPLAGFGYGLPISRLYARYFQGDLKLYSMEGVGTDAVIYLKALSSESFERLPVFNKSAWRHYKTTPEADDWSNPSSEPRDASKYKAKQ

[17] = target: T1, [Pyruvate dehydrogenase (acetyl-transferring)] kinase isozyme 1, mitochondrial; experiment: Inhibition of PDK1 in human A549 cells assessed as reduction in phosphorylation of PDHE1 at S232 residue at 1 uM after 24 hrs by chemiluminescence/femtochemiluminescence method; assay type: cell-based
L02 = experiment: Antiproliferative activity against human LO2 cells after 72 hrs by CCK8 assay; assay type: cell-based; settings: L02, 72 h
A549 [18] = experiment: cells; settings: Homo sapiens, A549, 72 h
Description: Antiproliferative activity against human A549 cells after 72 hrs by CCK8 assay

[19] = target: T1, [Pyruvate dehydrogenase (acetyl-transferring)] kinase isozyme 1, mitochondrial; experiment: Inhibition of PDK1 in human A549 cells assessed as reduction in phosphorylation of PDHE1 at S232 residue after 24 hrs by chemiluminescence/femtochemiluminescence method; assay type: cell-based
Mus musculus = experiment: Toxicity in BALB/c nude mouse assessed as body weight loss at 40 to 80 mg/kg, ip for 21 days; assay type: organism-based; settings: in vivo, 504 h
[20] = target: T1, [Pyruvate dehydrogenase (acetyl-transferring)] kinase isozyme 1, mitochondrial; experiment: Inhibition of PDK1 in human A549 cells assessed as reduction in phosphorylation of PDHE1 at S293 residue at 1 uM after 24 hrs by chemiluminescence/femtochemiluminescence method; assay type: cell-based
[21] = target: T1, [Pyruvate dehydrogenase (acetyl-transferring)] kinase isozyme 1, mitochondrial; experiment: Inhibition of full length His6-tagged PDK1 (unknown origin) expressed in Escherichia coli assessed as inactivation rate using full length His6-tagged PDHA1 as substrate up to 45 mins by ELISA
[22] = target: T1, [Pyruvate dehydrogenase (acetyl-transferring)] kinase isozyme 1, mitochondrial; experiment: Ratio of Kinact to Ki for full length His6-tagged PDK1 (unknown origin) expressed in Escherichia coli

Compound: CCCCCCCCCCOCC1CN(C(=S)SSC(=S)N2CCCOC(COCCCCCCCCCC)C2)CCCO1 (stereo unspecified)
pIC50 [1]: < 5.00

Compound: CCOC(=O)C1CCc2nc(S)sc2C1 (stereo unspecified)
inhibition [2]: inactive

Compound: CCCCOCC1CN(C(=S)SSC(=S)N2CCCOC(COCCCC)C2)CCCO1 (stereo unspecified)
pIC50 [1]: 6.23

Compound: O=[N+]([O-])c1ccc2nc(SSc3nc4ccc([N+](=O)[O-])cc4s3)sc2c1
pIC50 [1]: 6.79

Compound: C1Cc2nc(SSc3nc4c(s3)COCC4)sc2CO1
pIC50 [1]: 6.77

Compound: OCC1CN(C(=S)SSC(=S)N2CCCOC(CO)C2)CCCO1 (stereo unspecified)
pIC50 [1]: 5.54

Compound: S=C(SSC(=S)N1CCCOC(COc2ccccc2)C1)N1CCCOC(COc2ccccc2)C1 (stereo unspecified)
pIC50 [1]: 6.22

Compound: Sc1nc2ccccc2s1
inhibition [2]: inactive

Compound: CN(C)C(=O)OCC1CN(C(=S)SSC(=S)N2CCOC(COC(=O)N(C)C)C2)CCO1 (stereo unspecified)
pIC50 [1]: 5.77

Compound: COCC1CN(C(=S)SSC(=S)N2CCCOC(COC)C2)CCCO1 (stereo unspecified)
pIC50 [1]: 6.46

Compound: S=C(SSC(=S)N1CCO[C@H]2CCCC[C@@H]21)N1CCO[C@H]2CCCC[C@@H]21
inhibition [7]: Active
pIC50 [1]: 6.54

Compound: S=C(SSC(=S)N1CCOC(COc2cccc3ccccc23)C1)N1CCOC(COc2cccc3ccccc23)C1 (stereo unspecified)
Kinact [21]: 6.9 ×10⁻⁴ /s
pIC50 [1]: 5.41
pKi [1]: 4.65
Ratio [22]: 0.03 ×10³ /M/s

Compound: C1Cc2nc(SSc3nc4c(s3)CCC4)sc2C1
pIC50 [1]: 6.86

Compound: S=C(SSC(=S)N1CCOc2ccccc21)N1CCOc2ccccc21
Kinact [21]: 2.1 ×10⁻⁴ /s
pIC50 [1]: 5.98
pKi [1]: 5.48
Ratio [22]: 0.06 ×10³ /M/s

The remaining compounds from weak to strong by pIC50 [1], led by results:

pIC50 [1]: 6.90
Compound: O=C(O)C1CN(C(=S)SSC(=S)N2CCOC(C(=O)O)C2)CCO1 (stereo unspecified)

inhibition [7]: Active
pIC50 [1]: 6.95
inhibition [14]: Active
inhibition [17]: Active
inhibition [20]: Active
Compound: CC(=O)OCC1CN(C(=S)SSC(=S)N2CCOC(COC(C)=O)C2)CCO1 (stereo unspecified)

pIC50 [1]: 7.00
Compound: CCOCC1CN(C(=S)SSC(=S)N2CCOC(COCC)C2)CCO1 (stereo unspecified)

pIC50 [1]: 7.05
Compound: C1CCc2sc(SSc3nc4c(s3)CCCC4)nc2C1

inhibition [7]: Active
pIC50 [1]: 7.07
inhibition [14]: Active
inhibition [17]: Active
inhibition [20]: Active
Compound: COC(=O)C1CN(C(=S)SSC(=S)N2CCOC(C(=O)OC)C2)CCO1 (stereo unspecified)

inhibition [7]: Active
pIC50 [1]: 7.14
inhibition [14]: Active
inhibition [17]: Active
inhibition [20]: Active
Compound: CCOC[C@@H]1COCCN1C(=S)SSC(=S)N1CCOC[C@H]1COCC

inhibition [7]: Active
pIC50 [1]: 7.49
inhibition [14]: Active
inhibition [17]: Active
inhibition [20]: Active
Compound: C[C@@H]1CN(C(=S)SSC(=S)N2C[C@@H](C)O[C@@H](C)C2)C[C@H](C)O1

pKi [3]: 5.89
inhibition [4]: inactive
inhibition [5]: Dose-dependent effect
inhibition [6]: Dose-dependent effect
inhibition [7]: Active
inhibition [9]: inactive
inhibition [12]: Dose-dependent effect
pIC50 [1]: 7.59
pKi [1]: 6.96
inhibition [14]: Active
pKi [16]: 5.11
inhibition [17]: Active
pIC50 (A549 [18]): 6.65
inhibition [19]: Dose-dependent effect
inhibition [20]: Active
Compound: S=C(SSC(=S)N1CCCOCC1)N1CCCOCC1
inhibition in vivo at 80 mg/kg (A549 [8]): 47.8%
pIC50 [10]: 7.24
pIC50 [11]: < 5.00
Activity (A549 [13]): Active
inhibition in vivo at 40 mg/kg (A549 [15]): 26.2%
pIC50 (L02): < 5.00
Activity (Mus musculus): Non-Toxic
